Laboratory results as given in ChEMBL document CHEMBL1201862, “PubChem BioAssay data set” (2004).
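Dose response: 5 concentrations. Exposure: 48 h. Format: 96-well plates. Endpoint: linear interpolation; highest concentration if not reached. GI50 = concentration required for 50% inhibition of growth.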 Active and inactive are the calls of the source. Cut-off read from the data, not from the text of the source: active = GI50 up to about 1.1 µM and inactive = higher.

What was measured:
Test in all cases: growth of human tumour cells (NCI), 48 h
[1] = tested on: 786-0
[2] = tested on: A498
[3] = tested on: A549
[4] = tested on: ACHN
[5] = tested on: BT-549
[6] = tested on: CAKI-1
[7] = tested on: CCRF-CEM
[8] = tested on: COLO 205
[9] = tested on: DU-145
[10] = tested on: EKVX
[11] = tested on: HCT-116
[12] = tested on: HCT-15
[13] = tested on: HOP-62
[14] = tested on: HOP-92
[15] = tested on: HT-29
[16] = tested on: Hs-578T
[17] = tested on: IGROV-1
[18] = tested on: K562
[19] = tested on: KM12
[20] = tested on: LOX IMVI
[21] = tested on: M14
[22] = tested on: MCF7
[23] = tested on: MDA-MB-231
[24] = tested on: MDA-MB-435
[25] = tested on: MDA-N
[26] = tested on: MOLT-4
[27] = tested on: Malme-3M
[28] = tested on: NCI-H23
[29] = tested on: NCI-H460
[30] = tested on: NCI-H522
[31] = tested on: NCI/ADR-RES
[32] = tested on: OVCAR-3
[33] = tested on: OVCAR-4
[34] = tested on: OVCAR-5
[35] = tested on: OVCAR-8
[36] = tested on: PC-3
[37] = tested on: RPMI-8226
[38] = tested on: RXF 393
[39] = tested on: SF-268
[40] = tested on: SF-295
[41] = tested on: SF-539
[42] = tested on: SK-MEL-28
[43] = tested on: SK-MEL-2
[44] = tested on: SK-MEL-5
[45] = tested on: SK-OV-3
[46] = tested on: SN12C
[47] = tested on: SNB-19
[48] = tested on: SNB-75
[49] = tested on: SR
[50] = tested on: SW-620
[51] = tested on: T47D
[52] = tested on: TK-10
[53] = tested on: U-251
[54] = tested on: UACC-257
[55] = tested on: UACC-62
[56] = tested on: UO-31
[57] = tested on: HL-60
[58] = tested on: NCI-H226

Oc1c(Cl)cc(CN(Cc2cc(Cl)c(O)c(Cl)c2)C2CCCCC2)cc1Cl
GI50 [1]: > 100 µM (inactive) | GI50 [2]: > 100 µM (inactive) | GI50 [3]: > 100 µM (inactive) | GI50 [4]: > 100 µM (inactive) | GI50 [5]: > 100 µM (inactive) | GI50 [6]: > 100 µM (inactive) | GI50 [7]: < 0.01 µM (active) | GI50 [8]: > 100 µM (inactive) | GI50 [9]: > 100 µM (inactive) | GI50 [10]: > 100 µM (inactive) | GI50 [11]: > 100 µM (inactive) | GI50 [12]: > 100 µM | GI50 [13]: > 100 µM (inactive) | GI50 [14]: > 100 µM (inactive) | GI50 [15]: > 100 µM (inactive) | GI50 [16]: > 100 µM (inactive) | GI50 [17]: > 100 µM (inactive) | GI50 [18]: > 100 µM (inactive) | GI50 [19]: > 100 µM (inactive) | GI50 [20]: > 100 µM (inactive) | GI50 [21]: > 100 µM (inactive) | GI50 [22]: > 100 µM (inactive) | GI50 [23]: > 100 µM (inactive) | GI50 [24]: > 100 µM (inactive) | GI50 [25]: > 100 µM (inactive) | GI50 [26]: > 100 µM (inactive) | GI50 [27]: > 100 µM (inactive) | GI50 [28]: > 100 µM (inactive) | GI50 [29]: > 100 µM (inactive) | GI50 [30]: > 100 µM (inactive) | GI50 [31]: > 100 µM (inactive) | GI50 [32]: > 100 µM (inactive) | GI50 [33]: > 100 µM (inactive) | GI50 [34]: > 100 µM (inactive) | GI50 [35]: > 100 µM (inactive) | GI50 [36]: > 100 µM (inactive) | GI50 [37]: > 100 µM (inactive) | GI50 [38]: > 100 µM (inactive) | GI50 [39]: > 100 µM (inactive) | GI50 [40]: > 100 µM (inactive) | GI50 [41]: > 100 µM (inactive) | GI50 [42]: > 100 µM (inactive) | GI50 [43]: > 100 µM (inactive) | GI50 [44]: > 100 µM (inactive) | GI50 [45]: > 100 µM (inactive) | GI50 [46]: > 100 µM (inactive) | GI50 [47]: > 100 µM (inactive) | GI50 [48]: > 100 µM (inactive) | GI50 [49]: > 100 µM (inactive) | GI50 [50]: > 100 µM (inactive) | GI50 [51]: > 100 µM (inactive) | GI50 [52]: > 100 µM (inactive) | GI50 [53]: > 100 µM (inactive) | GI50 [54]: > 100 µM (inactive) | GI50 [55]: > 100 µM (inactive) | GI50 [56]: > 100 µM (inactive)

CC12c3c4ccc(C=O)c3Oc3ccc(C=O)c(c31)Oc1ccc(C=O)c(c12)O4
GI50 [1]: > 25 µM (inactive) | GI50 [2]: > 25 µM (inactive) | GI50 [3]: > 25 µM (inactive) | GI50 [4]: > 25 µM (inactive) | GI50 [5]: > 25 µM (inactive) | GI50 [6]: > 25 µM (inactive) | GI50 [7]: 17.5 µM (inactive) | GI50 [8]: > 25 µM (inactive) | GI50 [9]: > 25 µM (inactive) | GI50 [10]: > 25 µM (inactive) | GI50 [11]: > 25 µM (inactive) | GI50 [12]: > 25 µM | GI50 [57]: > 25 µM (inactive) | GI50 [13]: > 25 µM (inactive) | GI50 [14]: > 25 µM (inactive) | GI50 [15]: > 25 µM (inactive) | GI50 [16]: > 25 µM (inactive) | GI50 [17]: > 25 µM (inactive) | GI50 [18]: > 25 µM (inactive) | GI50 [19]: > 25 µM (inactive) | GI50 [20]: > 25 µM (inactive) | GI50 [21]: > 25 µM (inactive) | GI50 [22]: > 25 µM (inactive) | GI50 [23]: > 25 µM (inactive) | GI50 [24]: > 25 µM (inactive) | GI50 [25]: > 25 µM (inactive) | GI50 [26]: > 25 µM (inactive) | GI50 [27]: > 25 µM (inactive) | GI50 [58]: > 25 µM (inactive) | GI50 [28]: > 25 µM (inactive) | GI50 [29]: > 25 µM (inactive) | GI50 [30]: > 25 µM (inactive) | GI50 [31]: > 25 µM (inactive) | GI50 [32]: > 25 µM (inactive) | GI50 [33]: > 25 µM (inactive) | GI50 [34]: > 25 µM (inactive) | GI50 [35]: > 25 µM (inactive) | GI50 [36]: > 25 µM (inactive) | GI50 [37]: > 25 µM (inactive) | GI50 [38]: > 25 µM (inactive) | GI50 [39]: > 25 µM (inactive) | GI50 [40]: > 25 µM (inactive) | GI50 [41]: > 25 µM (inactive) | GI50 [42]: > 25 µM (inactive) | GI50 [43]: > 25 µM (inactive) | GI50 [45]: > 25 µM (inactive) | GI50 [46]: > 25 µM (inactive) | GI50 [47]: > 25 µM (inactive) | GI50 [48]: > 25 µM (inactive) | GI50 [49]: 7.11 µM (inactive) | GI50 [50]: > 25 µM (inactive) | GI50 [51]: > 25 µM (inactive) | GI50 [53]: > 25 µM (inactive) | GI50 [54]: > 25 µM (inactive) | GI50 [55]: > 25 µM (inactive) | GI50 [56]: > 25 µM (inactive)
